Assay results taken from ChEMBL document CHEMBL3588855, “Different structures of the two peroxisome proliferator-activated receptor gamma (PPARγ) ligand-binding domains in homodimeric complex with partial agonist, but not full agonist” (Bioorg Med Chem Lett, 2015).

Columns and labels:
[1] = biological target: T1, Peroxisome proliferator-activated receptor gamma (Homo sapiens) (UniProt P37231); test: Agonist activity at human GAL4-tagged-PPARgamma transfected in monkey COS1 cells by transient transfection/luciferase reporter gene assay relative to 10 uM rosiglitazone; type: cell-based; conditions: COS-1
T1 sequence (whole entry): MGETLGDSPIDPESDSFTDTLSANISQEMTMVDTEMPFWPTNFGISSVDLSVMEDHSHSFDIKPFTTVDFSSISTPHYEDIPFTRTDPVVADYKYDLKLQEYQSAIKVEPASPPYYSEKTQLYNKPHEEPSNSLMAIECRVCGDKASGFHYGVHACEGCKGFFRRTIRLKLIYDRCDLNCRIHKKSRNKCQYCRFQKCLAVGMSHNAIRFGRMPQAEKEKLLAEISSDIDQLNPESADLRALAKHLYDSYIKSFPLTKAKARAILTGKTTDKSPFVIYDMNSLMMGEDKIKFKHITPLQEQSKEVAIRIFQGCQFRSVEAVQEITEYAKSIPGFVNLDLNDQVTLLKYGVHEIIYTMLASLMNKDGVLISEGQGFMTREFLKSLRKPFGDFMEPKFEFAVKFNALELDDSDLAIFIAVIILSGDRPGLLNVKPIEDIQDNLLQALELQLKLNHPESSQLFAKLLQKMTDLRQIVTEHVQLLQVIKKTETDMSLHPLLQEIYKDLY

[2] = biological target: T1, Peroxisome proliferator-activated receptor gamma (Homo sapiens); test: Agonist activity at human GAL4-tagged-PPARgamma transfected in monkey COS1 cells by transient transfection/luciferase reporter gene assay relative to 30 uM pioglitazone; type: cell-based; conditions: COS-1

%max [1]: 50%
%max [2]: 50%
SMILES: CCCOc1ccc(C(=O)NS(=O)(=O)c2ccccc2)cc1CNC(=O)c1ccc(-c2ncccn2)cc1
